US20230416238A1, “N-[(1,3-BENZOXAZOL-2-YL)-HETEROCYCLE]AMIDE DERIVATIVES FOR THE TREATMENT AND PROPHYLAXIS OF HEPATITIS B VIRUS INFECTION” (Hoffmann-La Roche Inc., priority 2020, published 2023)

Tests used:
Format in all cases: cell-based
HBsAg = assay: PHH HBV natural infection assay, HBsAg (alphalisa); settings: Hepatitis B virus, Hepatocyte, read-out: HBsAg IC50
Outline: (§1)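 Primary human hepatocytes infected with HBV at 200 GE/cell plus 4% PEG8000 for 24 h, then sandwich-cultured 72 h in medium with 1% DMSO. Compound applied twice at 72-h intervals; supernatant HBsAg and HBeAg quantified by AlphaLISA.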

[1] = Cytotoxicity in PHH natural infection assay (Cell Counting Kit-8); settings: HBV-infected primary human hepatocytes, CCK8
Outline: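 HBV-infected primary human hepatocytes (200 GE/cell, 4% PEG8000, 24 h), then sandwich-cultured 72 h. Cells dosed at varying concentrations for two 72-hour cycles, with medium refreshed. Cytotoxicity read by CCK-8 at end of treatment.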

HBeAg = assay: PHH HBV natural infection assay, HBeAg (alphalisa); settings: Hepatitis B virus, Hepatocyte, read-out: HBeAg IC50
Outline: as §1

Structure (SMILES)	IC50 (HBsAg) [µM]	CC50 at 144 h [1] [µM]	IC50 (HBeAg) [µM]
C[S@@](=N)(=O)c1ccc(C(=O)NC2CC3(C2)CN(c2nc4cc(Cl)ccc4o2)C3)o1 [Example 63, N-[2-(5-chloro-1,3-benzoxazol-2-yl)-2-azaspiro[3.3]heptan-6-yl]-5-[(R)-methylsulfonimidoyl]furan-2-carboxamide]	2.47	> 100	1.42
C[S+]([O-])c1ccc(C(=O)NC2CC3(C2)CN(c2nc4cc(Cl)ccc4o2)C3)o1 (stereo not drawn) [Example 64, N-[2-(5-chloro-1,3-benzoxazol-2-yl)-2-azaspiro[3.3]heptan-6-yl]-5-methylsulfinyl-furan-2-carboxamide]	2.52	> 100	1.54
O=C(NC1CC2(C1)CN(c1nc3cc(Cl)ccc3o1)C2)c1ccc(S(=O)(=O)CC2CC2)o1 [Example 65, N-[2-(5-chloro-1,3-benzoxazol-2-yl)-2-azaspiro[3.3]heptan-6-yl]-5-(cyclopropylmethylsulfonyl)furan-2-carboxamide]	0.806	92.3	1.07
O=C(NC1CC2(C1)CN(c1nc3cc(Cl)ccc3o1)C2)c1ccnc(S(=O)(=O)C2CC2)c1 [Example 66, N-[2-(5-chloro-1,3-benzoxazol-2-yl)-2-azaspiro[3.3]heptan-6-yl]-2-cyclopropylsulfonyl-pyridine-4-carboxamide]	0.781	84.2	0.608
CC1(NC(=O)c2ccc(S(C)(=O)=O)o2)CC2(CN(c3nc4cc(Cl)ccc4o3)C2)C1 [Example 67, N-[2-(5-chloro-1,3-benzoxazol-2-yl)-6-methyl-2-azaspiro[3.3]heptan-6-yl]-5-methylsulfonyl-furan-2-carboxamide]	1.77	> 100	2.13
CC1(NC(=O)c2ccnc(C(F)(F)F)c2)CC2(CN(c3nc4cc(Cl)ccc4o3)C2)C1 [Example 68, N-[2-(5-chloro-1,3-benzoxazol-2-yl)-6-methyl-2-azaspiro[3.3]heptan-6-yl]-2-(trifluoromethyl)pyridine-4-carboxamide]	4.35	86.9	4.69
O=C(NC1CCC2(C1)CN(c1nc3cc(Cl)ccc3o1)C2)c1ccc(C(F)(F)F)o1 (stereo not drawn) [Example 69, N-[2-(5-chloro-1,3-benzoxazol-2-yl)-2-azaspiro[3.4]octan-6-yl]-5-(trifluoromethyl)furan-2-carboxamide]	4.41	83.2	4.01
O=C(NC1CCC2(CC1)CN(c1nc3cc(Cl)ccc3o1)C2)c1ccc(C(F)(F)F)o1 [Example 70, N-[2-(5-chloro-1,3-benzoxazol-2-yl)-2-azaspiro[3.5]nonan-7-yl]-5-(trifluoromethyl)furan-2-carboxamide]	6.09	> 100	2.96
O=C(NC1CC2(CCN(c3nc4cc(Cl)ccc4o3)C2)C1)C1CCS(=O)(=O)C1 (stereo not drawn) [Example 71, N-[6-(5-chloro-1,3-benzoxazol-2-yl)-6-azaspiro[3.4]octan-2-yl]-1,1-dioxo-thiolane-3-carboxamide]	8.21	94.1	5.96
O=C(NC1CC2(CCN(c3nc4cc(Cl)ccc4o3)C2)C1)c1ccc(C(F)(F)F)o1 (stereo not drawn) [Example 72, N-[6-(5-chloro-1,3-benzoxazol-2-yl)-6-azaspiro[3.4]octan-2-yl]-5-(trifluoromethyl)furan-2-carboxamide]	7.9	81.4	4.36
O=C(NC1CC2(CCN(c3nc4ccc(Cl)cc4o3)C2)C1)C1CCS(=O)(=O)C1 (stereo not drawn) [Example 73, N-[6-(6-chloro-1,3-benzoxazol-2-yl)-6-azaspiro[3.4]octan-2-yl]-1,1-dioxo-thiolane-3-carboxamide]	6.32	> 100	3.05
O=C(NC1CCC2(CCN(c3nc4cc(Cl)ccc4o3)C2)C1)C1CCS(=O)(=O)C1 (stereo not drawn) [Example 74, N-[2-(5-chloro-1,3-benzoxazol-2-yl)-2-azaspiro[4.4]nonan-8-yl]-1,1-dioxo-thiolane-3-carboxamide]	4.33	> 100	3.73
O=C(NC1CCC2(CCN(c3nc4cc(Cl)ccc4o3)C2)C1)c1ccc(C(F)(F)F)o1 (stereo not drawn) [Example 75, N-[2-(5-chloro-1,3-benzoxazol-2-yl)-2-azaspiro[4.4]nonan-8-yl]-5-(trifluoromethyl)furan-2-carboxamide]	8.28	91.2	7.81
O=C(NC1CC2(CCN(c3nc4cc(Cl)ccc4o3)CC2)C1)C1CCS(=O)(=O)C1 (stereo not drawn) [Example 76, N-[7-(5-chloro-1,3-benzoxazol-2-yl)-7-azaspiro[3.5]nonan-2-yl]-1,1-dioxo-thiolane-3-carboxamide]	2.26	> 100	2.27
O=C(NC1CC2(CCN(c3nc4cc(Cl)ccc4o3)CC2)C1)c1ccc(C(F)(F)F)o1 [Example 77, N-[7-(5-chloro-1,3-benzoxazol-2-yl)-7-azaspiro[3.5]nonan-2-yl]-5-(trifluoromethyl)furan-2-carboxamide]	5.04	> 100	2.98
CC(C)(C)C(=O)NC1CCC2(CC1)CCN(c1nc3cc(Cl)ccc3o1)CC2 [Example 78, N-[3-(5-chloro-1,3-benzoxazol-2-yl)-3-azaspiro[5.5]undecan-9-yl]-2,2-dimethyl-propanamide]	1.47	57.9	1.2
CC(C)C(=O)NC1CCC2(CC1)CCN(c1nc3cc(Cl)ccc3o1)CC2 [Example 79, N-[3-(5-chloro-1,3-benzoxazol-2-yl)-3-azaspiro[5.5]undecan-9-yl]-2-methyl-propanamide]	8.84	> 100	11.6
CC(C)CC(=O)NC1CCC2(CC1)CCN(c1nc3cc(Cl)ccc3o1)CC2 [Example 80, N-[3-(5-chloro-1,3-benzoxazol-2-yl)-3-azaspiro[5.5]undecan-9-yl]-3-methyl-butanamide]	2.7	> 100	2.79
CS(=O)(=O)CC(=O)NC1CCC2(CC1)CCN(c1nc3cc(Cl)ccc3o1)CC2 [Example 81, N-[3-(5-chloro-1,3-benzoxazol-2-yl)-3-azaspiro[5.5]undecan-9-yl]-2-methylsulfonyl-acetamide]	3.49	67.3	2.28
NS(=O)(=O)CCC(=O)NC1CCC2(CC1)CCN(c1nc3cc(Cl)ccc3o1)CC2 [Example 82, N-[3-(5-chloro-1,3-benzoxazol-2-yl)-3-azaspiro[5.5]undecan-9-yl]-3-sulfamoyl-propanamide]	3.09	76.3	2.3
CS(=O)(=O)CCC(=O)NC1CCC2(CC1)CCN(c1nc3cc(Cl)ccc3o1)CC2 [Example 83, N-[3-(5-chloro-1,3-benzoxazol-2-yl)-3-azaspiro[5.5]undecan-9-yl]-3-methylsulfonyl-propanamide]	2.49	98.6	1.79
O=C(CC1CCOC1)NC1CCC2(CC1)CCN(c1nc3cc(Cl)ccc3o1)CC2 (stereo not drawn) [Example 84, N-[3-(5-chloro-1,3-benzoxazol-2-yl)-3-azaspiro[5.5]undecan-9-yl]-2-tetrahydrofuran-3-yl-acetamide]	2.02	58.6	1.37
O=C(NC1CCC2(CC1)CCN(c1nc3cc(Cl)ccc3o1)CC2)C1COC1 [Example 85, N-[3-(5-chloro-1,3-benzoxazol-2-yl)-3-azaspiro[5.5]undecan-9-yl]oxetane-3-carboxamide]	8.75	70.9	6.13
O=C(NC1CCC2(CC1)CCN(c1nc3cc(Cl)ccc3o1)CC2)C1CCOC1 (stereo not drawn) [Example 86, N-[3-(5-chloro-1,3-benzoxazol-2-yl)-3-azaspiro[5.5]undecan-9-yl]tetrahydrofuran-3-carboxamide]	2.89	82.7	2.8
CC1(C(=O)NC2CCC3(CC2)CCN(c2nc4cc(Cl)ccc4o2)CC3)CCSCC1 [Example 87, N-[3-(5-chloro-1,3-benzoxazol-2-yl)-3-azaspiro[5.5]undecan-9-yl]-4-methyl-tetrahydrothiopyran-4-carboxamide]	1.43	> 100	1.13
O=C(NC1CCC2(CC1)CCN(c1nc3cc(Cl)ccc3o1)CC2)C1CS(=O)(=O)C1 [Example 88, N-[3-(5-chloro-1,3-benzoxazol-2-yl)-3-azaspiro[5.5]undecan-9-yl]-1,1-dioxo-thietane-3-carboxamide]	1.52	28.9	1.25
O=C(NC1CCC2(CC1)CCN(c1nc3ccc(Cl)cc3o1)CC2)C1CS(=O)(=O)C1 [Example 89, N-[3-(6-chloro-1,3-benzoxazol-2-yl)-3-azaspiro[5.5]undecan-9-yl]-1,1-dioxo-thietane-3-carboxamide]	6.76	88.1	3.93
O=C(NC1CCC2(CC1)CCN(c1nc3cc(Cl)ccc3o1)CC2)C1CCS(=O)(=O)C1 (stereo not drawn) [Example 90, N-[3-(5-chloro-1,3-benzoxazol-2-yl)-3-azaspiro[5.5]undecan-9-yl]-1,1-dioxo-thiolane-3-carboxamide]	1.35	73.9	1.08
O=C(NC1CCC2(CC1)CCN(c1nc3cc(Cl)ccc3o1)CC2)[C@@H]1CCS(=O)(=O)C1 [Example 91, (3S)—N-[3-(5-chloro-1,3-benzoxazol-2-yl)-3-azaspiro[5.5]undecan-9-yl]-1,1-dioxo-thiolane-3-carboxamide]	1.12	89.2	0.676
